Experimental data taken from ChEMBL document CHEMBL3997846, “Synthesis and activity of nucleoside-based antiprotozoan compounds” (Bioorg Med Chem, 2017).

What was measured:
[1] = test system: Trypanosoma brucei rhodesiense; assay: Antitrypanosomal activity against bloodstream forms of Trypanosoma brucei rhodesiense STIB900 trypomastigotes after 72 hrs by alamar blue assay; type: functional; conditions: STIB900, 72 h
[2] = test system: Leishmania donovani; assay: Antileishmanial activity against Leishmania donovani MHOM/SD/62/ISCL2D axenic amastigotes after 72 hrs by alamar blue assay; type: functional
[3] = test system: Trypanosoma cruzi; assay: Antitrypanosomal activity against Trypanosoma cruzi Tulahuen strain C2C4 amastigote forms harboring LacZ infected in rat L6 cells after 96 hrs by CPRG/Nonidet reagent based photometric method; type: functional, cell-based; conditions: Tulahuen strain C2C4, L6, 96 h
[4] = Selectivity index, ratio of IC50 for rat L6 cells to IC50 for Trypanosoma cruzi Tulahuen strain C2C4 amastigote forms harboring LacZ infected in rat L6 cells; type: toxicity, cell-based; conditions: read-out: Ratio IC50
[5] = Selectivity index, ratio of IC50 for rat L6 cells to IC50 for bloodstream forms of Trypanosoma brucei rhodesiense STIB900 trypomastigotes; type: toxicity; conditions: read-out: Ratio IC50
[6] = test system: L6; assay: Cytotoxicity against rat L6 cells assessed as growth inhibition after 72 hrs by alamar blue assay; type: cell-based; conditions: L6, 72 h
[7] = Selectivity index, ratio of IC50 for rat L6 cells to IC50 for chloroquine resistant Plasmodium falciparum K1 erythrocytic stage; type: toxicity; conditions: read-out: Ratio IC50
[8] = test system: Plasmodium falciparum; assay: Antiplasmodial activity against chloroquine resistant Plasmodium falciparum K1 erythrocytic stage assessed as reduction in [3H]hypoxanthine incorporation after 48 hrs by liquid scintillation counting assay; type: functional
[9] = Selectivity index, ratio of IC50 for rat L6 cells to IC50 for Leishmania donovani MHOM/SD/62/ISCL2D axenic amastigotes; type: toxicity; conditions: read-out: Ratio IC50

Structure (SMILES)	IC50 [1]	IC50 [2]	IC50 [3]	selectivity ratio [4]	selectivity ratio [5]	IC50 [6]	selectivity ratio [7]	IC50 [8]	selectivity ratio [9]
CC(=O)O[C@@H]1[C@H](OC(C)=O)[C@@H](CI)O[C@H]1n1cnc2c(N)nc(F)nc21	15 µM	9.2 µM	14 µM	0.4	0.4	6.3 µM	6	1.1 µM	0.7
Nc1nc(Cl)c2ccn([C@@H]3O[C@H](CO)[C@@H](O)[C@H]3O)c2n1	0.13 µM	0.06 µM	3.4 µM	48	1250	163 µM	2	68 µM	2720
CNc1nc(N)nc2c1ncn2[C@@H]1O[C@H](C)[C@@H](O)[C@H]1O	127 µM	326 µM	15 µM	14	2	211 µM	11	19 µM	0.6
COc1nc(I)nc2c1ncn2[C@@H]1O[C@H](C)[C@@H](O)[C@H]1O	108 µM	126 µM	113 µM	1	2	158 µM	2	65 µM	1
Nc1nc([Se][Se]c2nc(N)nc3c2ccn3[C@@H]2O[C@H](CO)[C@@H](O)[C@H]2O)c2ccn([C@@H]3O[C@H](CO)[C@@H](O)[C@H]3O)c2n1	9.6 µM	> 145 µM	21 µM	1	3	24 µM	1	20.5 µM	< 0.2
CC(=O)NC[C@H]1O[C@@H](n2cnc3c(N)nc(Cl)nc32)[C@H](O)[C@@H]1O	79 µM	> 280 µM	174 µM	1	2	189 µM	2	88 µM	< 0.7
CC(=O)O[C@@H]1[C@H](OC(C)=O)[C@@H](CI)O[C@H]1n1cnc2c(N)nc(Cl)nc21	12 µM	15 µM	10 µM	9	7	86 µM	22	3.9 µM	6
[N-]=[N+]=NC[C@H]1O[C@@H](n2cnc3c(N)nc(F)nc32)[C@H](O)[C@@H]1O	22 µM	1 µM	13 µM	0.2	0.1	3.1 µM	3	0.89 µM	3
CNc1nc(N)nc2c1ncn2[C@@H]1O[C@H](CSC)[C@@H](O)[C@H]1O	290 µM	> 318 µM	22 µM	8	0.6	165 µM	6	29 µM	0.5
[N-]=[N+]=NC[C@H]1O[C@@H](n2cnc3c(N)nc(Cl)nc32)[C@H](O)[C@@H]1O	56 µM	193 µM	76 µM	2	3	155 µM	16	9.8 µM	0.8
CC(=O)NC[C@H]1O[C@@H](n2cnc3c(N)nc(Cl)nc32)[C@H](OC(C)=O)[C@@H]1OC(C)=O	113 µM	> 230 µM	125 µM	2	2	190 µM	2	102 µM	< 0.8
CNc1nc(NC)c2ncn([C@@H]3O[C@H](C)[C@@H](O)[C@H]3O)c2n1	> 340 µM	> 340 µM	109 µM	2	< 0.6	187 µM	< 1	> 170 µM	< 0.6
Nc1nc2c(ccn2[C@@H]2O[C@H](CO)[C@@H](O)[C@H]2O)c(=S)[nH]1	61 µM	> 335 µM	71 µM	3	3	185 µM	< 1	> 168 µM	< 0.6
CC(=O)O[C@@H]1[C@H](OC(C)=O)[C@@H](CN2C(=O)c3ccccc3C2=O)O[C@H]1n1cnc2c(N)nc(F)nc21	160 µM	> 200 µM	103 µM	1	0.8	129 µM	3	45 µM	< 0.6
CNc1nc(Cl)c2ncn([C@@H]3O[C@H](C)[C@@H](O)[C@H]3O)c2n1	230 µM	> 335 µM	35 µM	5	0.8	175 µM	1	150 µM	< 0.5
CC(=O)NC[C@H]1O[C@@H](n2cnc3c(N)nc(F)nc32)[C@H](O)[C@@H]1O	> 300 µM	117 µM	178 µM	1	< 0.6	182 µM	10	19 µM	2
CC(=O)O[C@@H]1[C@H](OC(C)=O)[C@@H](CN2C(=O)c3ccccc3C2=O)O[C@H]1n1cnc2c(N)nc(Cl)nc21	161 µM	139 µM	101 µM	1	0.9	144 µM	6	23 µM	1
CC(=O)NC[C@H]1O[C@@H](n2cnc3c(N)nc(F)nc32)[C@H](OC(C)=O)[C@@H]1OC(C)=O	115 µM	> 240 µM	106 µM	1	1	138 µM	4	37 µM	< 0.6
